What is called IC50 is the concentration that gives 50% inhibition.

One experiment addresses Ab1 (Homo sapiens, UniProt P00519). As to the kind of experiment: Tyrosine kinase assay by MDS Pharma Services (Panlabs). Type of experiment: biochemical.
A further experiment addresses Fyn (Homo sapiens, UniProt P06241). Described as above. It is filed as biochemical.
For a further experiment, the target named is ERK1 (Homo sapiens, UniProt P27361). As to the kind of experiment: Ser/Thr kinase assay by MDS Pharma Services (Panlabs). It is filed as biochemical.
ERK1, sequence (P27361 whole entry, species assumed): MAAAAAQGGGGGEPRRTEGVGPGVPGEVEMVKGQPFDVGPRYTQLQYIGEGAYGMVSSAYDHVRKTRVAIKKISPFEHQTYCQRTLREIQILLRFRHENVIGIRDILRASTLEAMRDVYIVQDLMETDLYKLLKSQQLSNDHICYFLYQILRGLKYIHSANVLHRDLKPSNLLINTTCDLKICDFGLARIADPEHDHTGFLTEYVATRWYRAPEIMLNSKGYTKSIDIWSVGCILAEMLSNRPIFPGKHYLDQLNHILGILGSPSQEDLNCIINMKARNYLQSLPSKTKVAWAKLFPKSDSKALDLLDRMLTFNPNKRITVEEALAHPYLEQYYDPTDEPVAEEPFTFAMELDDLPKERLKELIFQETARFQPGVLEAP
A further experiment has as its target p38α (Homo sapiens, UniProt Q16539). Described as above. It is filed as biochemical.
The target of a further experiment is p70^S6 (Homo sapiens, UniProt P23443). The experiment is described as above. It is filed as biochemical.
p70^S6, sequence (P23443 24-525 limits assumed): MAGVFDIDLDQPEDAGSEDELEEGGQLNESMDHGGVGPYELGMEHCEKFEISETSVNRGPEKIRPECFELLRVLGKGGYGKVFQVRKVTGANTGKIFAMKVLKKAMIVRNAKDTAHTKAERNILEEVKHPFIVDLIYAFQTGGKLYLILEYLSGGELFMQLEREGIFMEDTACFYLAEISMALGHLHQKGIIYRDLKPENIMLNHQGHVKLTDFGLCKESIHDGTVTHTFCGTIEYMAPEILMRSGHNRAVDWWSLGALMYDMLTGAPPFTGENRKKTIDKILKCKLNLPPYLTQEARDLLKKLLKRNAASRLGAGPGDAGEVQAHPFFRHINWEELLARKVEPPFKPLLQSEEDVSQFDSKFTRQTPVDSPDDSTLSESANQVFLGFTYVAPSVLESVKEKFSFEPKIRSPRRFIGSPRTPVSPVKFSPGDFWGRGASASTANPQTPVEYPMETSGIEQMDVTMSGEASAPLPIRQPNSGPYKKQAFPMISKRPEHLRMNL
The next experiment has as its target PKA Non-selective. The description is as above. Type of experiment: biochemical.
Experiment [1] has as its system PI 3-kinase lipid products in platelets. As to the kind of experiment: Shear-induced PI 3-kinase lipid products in platelets (cone & plate device, HPLC). It is filed as cell-based.
Procedure: Measurements of the lipid products PtdIns(4,5)P2 and PtdIns(3,4)P2 in intact platelets were performed by initially isolating lipids by HPLC and identifying lipid peaks using defined PtdIns(4,5)P2 and PtdIns(3,4)P2 standards. Lipids were integrated and normalized to total lipid applied and expressed as a fraction of untreated (control) samples.
For this assay, whole blood was collected in the presence of anti-coagulant [6 volumes blood to 1 volume anticoagulant (90 mM sodium citrate, 7 mM citric acid, pH 4.6, 140 mM dextrose and 70 mM theophylline)] and platelets isolated and washed using a modified method of Baezinger and Majerus (1974). Briefly, platelet-rich plasma (PRP) was obtained by centrifugation of whole blood at 200×g for 30 minutes. Platelets were then pelleted by centrifugation of the PRP at 2,000×g for 10 minutes. The platelet pellet was resuspended in platelet washing buffer (PWB) [4.3 mM K2HPO4, 4.3 mM Na2HPO4, 24.3 mM NaH2PO4, pH 6.5, 113 mM NaCl, 5.5 mM glucose, 0.5% bovine serum albumin (BSA) and 10 mM theophylline]. […] Lipid peaks co-eluting with commercially available PtdIns(3,4)P2 and PtdIns(4,5)P2 standards were integrated and normalized to total lipid applied and expressed as a fraction of control samples.
The next experiment deals with washed platelets. The experiment is described as follows: Shear-induced platelet aggregation (cone & plate device, single platelet count). The following applies: 5 min, vWf 10 μg/ml, 5000 s^−1 for 5 min, read-out: inhibition of shear induced platelet aggregation, IC50. It is filed as cell-based. The text has this:
Platelet samples were aspirated and the level of platelet aggregation determined by analyzing the number of unincorporated single platelets using a […] hematology analyzer. All data were normalized to control experiments and expressed as the proportional increase relative to control samples.

In experiment [2] the test system is carotid artery occlusive thrombus formation in rats. The experiment is described as follows: Modified Folts model in rats. Type of experiment: in vivo, Sprague-Dawley rats. The method, then:
(§1) Studies were approved by the University of Melbourne Animal Ethics Committee in accordance with the guidelines of the National Health & Medical Research Council of Australia. Anaesthesia was induced in Sprague-Dawley rats (260-400 g) with sodium pentobarbitone (Nembutal; 60 mg/kg i.p.; Merial Australia Pty. Ltd., Sydney, NSW, Australia), and in New Zealand White rabbits (2-3 kg) with pentobarbitone (15 mg/kg i.v.) and fentanyl (6 μg/kg i.v.; David Bull Laboratories, Mulgrave, VIC, Australia). Animals were mechanically ventilated (Ugo Basile ventilator, Comerio, VA, Italy) with room air supplemented with O2. Body temperature was maintained throughout the experiment. Arterial blood pressure was measured via a femoral artery catheter connected to a pressure transducer (Model 1050.1, AD Instruments, Sydney, NSW) and a blood flow probe (1 mm i.d. for rats & 2.5 mm i.d. for rabbits; flowmeter […], Transonic Systems Inc., Ithaca, N.Y., USA) was placed around each (control and test) carotid artery; all parameters were recorded on a PowerLab data acquisition system (8SP; AD Instruments). A silk suture was tied loosely around 1 artery, distal to the flow probe, for subsequent stenosis. […] Carotid blood flow was monitored until it reached 0 ml/min, indicating a clot had formed at the site of stenosis. […] Again, carotid blood flow was monitored until it reached 0 ml/min, and the time recorded. […]

Experiment [3] relates to carotid artery occlusive thrombus formation in rabbits. The experiment is described as follows: Modified Folts model in rabbits. It is filed as in vivo, New Zealand White rabbits. The method, then: as §1

Fyn, sequence (P06241 whole entry, species assumed): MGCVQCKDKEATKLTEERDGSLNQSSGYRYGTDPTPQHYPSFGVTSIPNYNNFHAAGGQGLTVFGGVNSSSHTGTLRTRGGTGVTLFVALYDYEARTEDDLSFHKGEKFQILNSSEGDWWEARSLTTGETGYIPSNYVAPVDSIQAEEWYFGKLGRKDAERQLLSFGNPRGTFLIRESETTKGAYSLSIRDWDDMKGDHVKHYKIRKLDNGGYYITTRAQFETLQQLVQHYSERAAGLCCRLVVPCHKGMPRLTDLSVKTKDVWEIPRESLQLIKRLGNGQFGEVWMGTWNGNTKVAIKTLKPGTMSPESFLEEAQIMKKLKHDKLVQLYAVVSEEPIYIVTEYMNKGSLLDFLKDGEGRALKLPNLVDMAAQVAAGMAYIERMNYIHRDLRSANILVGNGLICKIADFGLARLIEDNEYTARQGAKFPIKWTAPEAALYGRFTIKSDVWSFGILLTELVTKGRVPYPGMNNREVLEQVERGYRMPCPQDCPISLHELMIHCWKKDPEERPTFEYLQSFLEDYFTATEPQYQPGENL
Ab1, sequence (P00519 whole entry): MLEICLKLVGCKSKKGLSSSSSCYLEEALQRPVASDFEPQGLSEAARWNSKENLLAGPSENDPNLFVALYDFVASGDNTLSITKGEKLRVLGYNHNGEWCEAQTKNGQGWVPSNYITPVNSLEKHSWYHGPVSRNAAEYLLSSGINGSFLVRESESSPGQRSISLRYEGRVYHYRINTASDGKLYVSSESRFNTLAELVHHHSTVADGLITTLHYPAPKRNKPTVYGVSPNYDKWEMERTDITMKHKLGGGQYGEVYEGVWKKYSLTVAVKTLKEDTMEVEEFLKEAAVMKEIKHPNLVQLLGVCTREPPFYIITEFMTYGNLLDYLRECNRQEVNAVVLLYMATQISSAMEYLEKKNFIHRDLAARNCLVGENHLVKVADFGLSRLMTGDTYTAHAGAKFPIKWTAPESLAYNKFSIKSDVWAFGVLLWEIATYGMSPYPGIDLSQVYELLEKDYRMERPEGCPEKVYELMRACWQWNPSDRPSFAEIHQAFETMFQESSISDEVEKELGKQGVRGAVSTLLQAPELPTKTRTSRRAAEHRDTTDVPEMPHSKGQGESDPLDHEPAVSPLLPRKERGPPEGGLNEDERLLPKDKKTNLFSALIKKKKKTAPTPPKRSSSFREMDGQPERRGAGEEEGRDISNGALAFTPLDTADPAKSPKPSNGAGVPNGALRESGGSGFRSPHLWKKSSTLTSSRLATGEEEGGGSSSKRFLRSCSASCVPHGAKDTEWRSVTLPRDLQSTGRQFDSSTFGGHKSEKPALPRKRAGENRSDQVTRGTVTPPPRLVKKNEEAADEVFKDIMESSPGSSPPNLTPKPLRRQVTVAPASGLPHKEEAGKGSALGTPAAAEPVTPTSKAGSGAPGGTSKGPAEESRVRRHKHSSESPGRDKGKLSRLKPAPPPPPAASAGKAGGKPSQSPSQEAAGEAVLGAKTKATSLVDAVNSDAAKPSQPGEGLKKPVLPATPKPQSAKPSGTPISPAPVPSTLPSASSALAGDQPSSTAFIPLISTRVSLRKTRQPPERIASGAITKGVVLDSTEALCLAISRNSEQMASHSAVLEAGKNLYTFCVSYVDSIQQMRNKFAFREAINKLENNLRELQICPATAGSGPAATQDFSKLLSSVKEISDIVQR
p38α, sequence (Q16539 whole entry): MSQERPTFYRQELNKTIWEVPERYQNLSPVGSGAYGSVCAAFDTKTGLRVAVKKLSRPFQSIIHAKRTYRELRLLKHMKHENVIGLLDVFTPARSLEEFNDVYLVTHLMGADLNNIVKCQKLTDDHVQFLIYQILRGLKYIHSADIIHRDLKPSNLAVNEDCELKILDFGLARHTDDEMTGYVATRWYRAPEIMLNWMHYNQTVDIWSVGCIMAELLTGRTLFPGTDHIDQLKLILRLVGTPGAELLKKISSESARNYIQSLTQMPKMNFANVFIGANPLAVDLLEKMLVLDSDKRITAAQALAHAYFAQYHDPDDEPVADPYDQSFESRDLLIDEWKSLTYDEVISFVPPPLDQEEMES

`Cc1cc(C(C)Nc2ccccc2)c2nc(N3CCOCC3)cc(=O)n2c1` (racemic) [TGX-221, (±)-7-methyl-2-morpholin-4-yl-9-(1-phenylaminoethyl)-pyrido[1,2-a]pyrimidin-4-one]: the IC50 at Ab1, at Fyn, against ERK1, against p38α, at p70^S6 and against PKA Non-selective was over 10 µM each time. Besides, in the experiment on washed platelets, the 50% inhibitory concentration (IC50) is 0.05 to 0.1 µM. For the same compound, the “cellular levels of conventional phosphoinositides PtdIns, PtdIns(4)P and PtdIns(4,5)P2” value in experiment [1] (in words) was “without altering”. Besides, the “PI 3-kinase lipid generation” value in experiment [1] (shear 5000 s^−1, in words) is given as “selectively inhibited PI 3-kinase lipid generation”. For the same compound, the “animals in which occlusive thrombus formation was immediately abolished” value in [2] (2 mg/kg i.v. bolus) and in experiment [3] (2 mg/kg i.v. bolus) was 100% each time. The occlusive thrombus formation result is recorded as “completely prevented” in experiment [2] (2 mg/kg, in words) and “completely prevented” in [3] (2 mg/kg, in words).

For the origin of these results see patent publication US7598377B2, “Inhibition of phosphoinositide 3-kinase β” (AstraZeneca AB, priority 2002, dated 2009).
